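Briefly, cells in 96-well plates were exposed to five compound concentrations for 48 h, and endpoints were estimated by linear interpolation. The concentration for 50% growth inhibition is given as GI50.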 Active and inactive are the calls of the source. Cut-off read from the data, not from the text of the source: active = GI50 up to about 1.1 µM and inactive = higher.

What all share (test): NCI-60 cell line screen, 48 h
For test [1], the system named is SK-OV-3.
Test [2] concerns MCF7.
The test system of test [3] is HT-29.
Test [4] has as its system A549.
The test system of test [5] is A498.
The subject of test [6] is T47D.
For test [7], the system named is SN12C.
Test [8] deals with UACC-257.
Test [9] concerns NCI-H460.
The subject of test [10] is IGROV-1.
For test [11], the system named is K562.
The subject of test [12] is MDA-MB-435.
The test system of test [13] is SF-295.
The subject of test [14] is OVCAR-8.
Test [15] concerns HCT-15.
Test [16] deals with 786-0.
Test [17] has as its system HOP-92.
Test [18] concerns LOX IMVI.

Turning to `COc1cc(COC(=O)N2CC=CC2C(=O)O)c([N+](=O)[O-])cc1OC` (stereo unspecified), the GI50 in test [1], in test [2], in test [3], in [4], in test [5] and in [6] was > 100 µM (inactive) each time. In addition, the GI50 in test [7], in [8], in test [9], in [10], in test [11] and in test [12] was > 100 µM (inactive) each time. Also, the GI50 in test [13] is > 100 µM (inactive); in test [14], > 100 µM (inactive); in test [15], above 100 µM; in [16], > 100 µM (inactive); in [17], > 100 µM (inactive).
In the case of `O/N=C/C1c2ccccc2-c2ccccc21`, the GI50 in [1] was 14.4 µM (inactive); in test [18], 23 µM (inactive); in [2], 16 µM (inactive); in test [3], 14.8 µM (inactive); in test [4] it was 19.2 µM (inactive); in test [5], 17.5 µM (inactive). The GI50 was 19.3 µM (inactive) in test [6]; 16.4 µM (inactive) in test [7]; 17.5 µM (inactive) in [8]; 17.3 µM (inactive) in test [9]; 29.9 µM (inactive) in test [11]; 15.8 µM (inactive) in test [12]. The GI50 in [13] was 22.5 µM (inactive); in test [14] it was 19.6 µM (inactive); in test [15], 19.5 µM; in [16], 3.7 µM (inactive); in test [17], 12.8 µM (inactive).
On to `COc1cc2c(=O)cnoc2cc1O`, for which the GI50 was > 100 µM (inactive) in test [1]; > 100 µM (inactive) in [2]; > 100 µM (inactive) in test [3]; > 100 µM (inactive) in [4]; 39.5 µM (inactive) in test [5]; > 100 µM (inactive) in test [6]. Also, the GI50 in [7], in test [8], in test [9], in test [10], in test [11] and in test [12] was > 100 µM (inactive) each time. The GI50 in test [13] is > 100 µM (inactive); in test [14] it was > 100 µM (inactive); in [15], above 100 µM; in [16] it was > 100 µM (inactive); in test [17] it was > 100 µM (inactive).
With `Cn1[nH]nn/c1=N\N=C\c1ccccc1`, the GI50 in [1], in test [18], in test [2], in test [3], in [4] and in test [6] was > 10 µM (inactive) in each case. Moreover, the GI50 in [7], in test [8], in [9], in test [10], in test [11] and in test [12] was > 10 µM (inactive) throughout. Also, the GI50 in [13] is > 10 µM (inactive); in test [14] it was > 10 µM (inactive); in test [15], above 10 µM; in test [16] it was > 10 µM (inactive); in test [17], > 10 µM (inactive).
For `COc1ccc(N2C(=O)/C(=C\c3cc(OC)c(OC)c(OC)c3)S(=O)(=O)C2c2ccccc2)cc1` (stereo unspecified), the GI50 was 37.5 µM (inactive) in test [1]; 20 µM (inactive) in [18]; 30.2 µM (inactive) in [2]; 26.2 µM (inactive) in test [4]; > 100 µM (inactive) in test [5]; 24.7 µM (inactive) in [6]. Moreover, the GI50 was > 100 µM (inactive) in test [7]; 52.7 µM (inactive) in test [8]; 47.6 µM (inactive) in test [9]; 12.7 µM (inactive) in test [11]; 21.8 µM (inactive) in [12]; 21.2 µM (inactive) in test [13]. The GI50 in test [14] was 25.2 µM (inactive); in test [15], 27.7 µM; in [16], 43.5 µM (inactive); in [17], 41.7 µM (inactive).
Regarding `C/C=C/COc1cc(NC(=S)OC(C)C)ccc1Cl.C/C=C\COc1cc(NC(=S)OC(C)C)ccc1Cl`, the GI50 was 21.9 µM (inactive) in [1]; 19.5 µM (inactive) in test [18]; 19.8 µM (inactive) in [2]; 15.3 µM (inactive) in test [3]; 15.6 µM (inactive) in test [4]; 16.2 µM (inactive) in test [5]. Moreover, the GI50 was 16.9 µM (inactive) in [6]; 14.2 µM (inactive) in [7]; 18.7 µM (inactive) in [8]; 16 µM (inactive) in test [9]; 19.6 µM (inactive) in test [10]; 21.2 µM (inactive) in [12]. In addition, the GI50 in test [13] is 20.2 µM (inactive); in test [14], 18.7 µM (inactive); in test [15], 17.3 µM; in test [16] it was 17.3 µM (inactive); in [17], 11.8 µM (inactive).
Turning to `CCSc1cc2c(cc1O)CC[C@@H]1[C@@H]2CC[C@]2(C)[C@@H](O)CC[C@@H]12`, the GI50 was 17.8 µM (inactive) in test [1]; 10.8 µM (inactive) in test [18]; 10.3 µM (inactive) in test [2]; 10.8 µM (inactive) in test [3]; 4.3 µM (inactive) in [4]; 15.6 µM (inactive) in [5]. Besides, the GI50 in test [6] is > 10 µM (inactive); in [7], 17.7 µM (inactive); in [8], 15.1 µM (inactive); in test [9], 6.68 µM (inactive); in [10], 11.7 µM (inactive); in test [11], 4.12 µM (inactive). The GI50 in test [12] was 1.98 µM (inactive); in test [14], 13.3 µM (inactive); in test [15], 5.68 µM; in test [16], 12.2 µM (inactive); in [17], 8.77 µM (inactive).
For `COC(=O)[C@]1(C)CCCC2(C)C3=C(CCC21)CC1(CC3)SCCS1` (stereo partly specified), the GI50 in test [1], in test [2], in test [3], in test [4], in [5] and in [6] was > 10 µM (inactive) each time. In addition, the GI50 in test [7], in test [8], in test [10], in [11], in test [12] and in test [14] was > 10 µM (inactive) in each case. Besides, the GI50 was above 10 µM in test [15], > 10 µM (inactive) in [16] and > 10 µM (inactive) in test [17].
For the compound `CN(C)/C=N\c1nncc2[nH]cnc12`, the GI50 is > 100 µM (inactive) in test [1]; 55.8 µM (inactive) in test [18]; > 100 µM (inactive) in test [2]; > 100 µM (inactive) in test [3]; > 100 µM (inactive) in [4]; > 100 µM (inactive) in [5]. Besides, the GI50 was > 100 µM (inactive) in [6]; > 100 µM (inactive) in test [7]; 92.7 µM (inactive) in [8]; > 100 µM (inactive) in test [10]; 43.6 µM (inactive) in test [11]; 63.5 µM (inactive) in test [12]. Besides, the GI50 is > 100 µM (inactive) in test [13]; > 100 µM (inactive) in [14]; above 100 µM in test [15]; > 100 µM (inactive) in [16]; 19.9 µM (inactive) in [17].
As for `Cc1ccc2c(c1)CC1(Cc3cc(C)ccc3C1=O)C2=O`, the GI50 in test [1], in [18], in test [2], in test [3], in test [4] and in test [5] was > 100 µM (inactive) in each case. Further, the GI50 in test [6], in [8], in test [9], in test [10], in [11] and in [12] was > 100 µM (inactive) each time. In addition, the GI50 in test [13] is > 100 µM (inactive); in test [14] it was > 100 µM (inactive); in test [15], above 100 µM; in test [16], > 100 µM (inactive); in [17], > 100 µM (inactive).
For `N#CCSc1c(-c2ccccc2)c(=O)n(-c2ccccc2)c(=S)n1-c1ccccc1`, the GI50 in test [1], in [18], in test [2], in [3], in test [4] and in test [6] was > 100 µM (inactive) in each case. The GI50 in test [7] was > 100 µM (inactive); in [8] it was > 100 µM (inactive); in [9] it was > 100 µM (inactive); in test [10], > 100 µM (inactive); in [11], > 100 µM (inactive); in test [12], 90.6 µM (inactive). For the same compound, the GI50 is > 100 µM (inactive) in test [13]; > 100 µM (inactive) in test [14]; above 100 µM in test [15]; > 100 µM (inactive) in test [16]; 4.99 µM (inactive) in [17].
With `CCCCC(=C=C1CCCCC1O)C1CCCN1C(=O)OC(C)(C)C` (stereo unspecified), the GI50 was 16.5 µM (inactive) in test [1]; 17.7 µM (inactive) in test [18]; 17.2 µM (inactive) in test [2]; 14.3 µM (inactive) in [3]; 14.9 µM (inactive) in test [4]; 13.2 µM (inactive) in test [6]. For the same compound, the GI50 in test [7] was 17.8 µM (inactive); in [8] it was 15.6 µM (inactive); in test [9], 15.5 µM (inactive); in [10], 16.7 µM (inactive); in test [11] it was 17.5 µM (inactive); in test [12], 16.9 µM (inactive). Moreover, the GI50 in [13] is 14.8 µM (inactive); in [14], 18.7 µM (inactive); in [15], 16.4 µM; in test [16], 16.1 µM (inactive); in test [17], 12.8 µM (inactive).

(Values after ChEMBL document CHEMBL1201862, “PubChem BioAssay data set” (2004).)
